# Reference: publication doi:10.1101/2024.08.19.608619, “Discovery of potent SARS-CoV-2 nsp3 macrodomain inhibitors uncovers lack of translation to cellular antiviral response” (bioRxiv, 2024)
# Values joined by “and” are separate entries in the source; they are usually repeats but may differ in a detail not shown here. Equal values may be shown once. Read-outs that look alike come from different tables or passages of the source.
# Legend:
# [1] = In vitro kinetic solubility; conditions: for solubility_mean: In vitro kinetic solubility, ph 7.4
# [2] = LogD
# [3] = target: T1, SAPK2a(h) (Homo sapiens, UniProt Q16539); assay: biochemical; parameters: In vitro kinase panel profiling, per cent remaining kinase activity at 10 uM; conditions: atp_concentration=90, read-out: % of control remaining
# T1 construct: gene MAPK14
# T1 sequence (Q16539 whole entry): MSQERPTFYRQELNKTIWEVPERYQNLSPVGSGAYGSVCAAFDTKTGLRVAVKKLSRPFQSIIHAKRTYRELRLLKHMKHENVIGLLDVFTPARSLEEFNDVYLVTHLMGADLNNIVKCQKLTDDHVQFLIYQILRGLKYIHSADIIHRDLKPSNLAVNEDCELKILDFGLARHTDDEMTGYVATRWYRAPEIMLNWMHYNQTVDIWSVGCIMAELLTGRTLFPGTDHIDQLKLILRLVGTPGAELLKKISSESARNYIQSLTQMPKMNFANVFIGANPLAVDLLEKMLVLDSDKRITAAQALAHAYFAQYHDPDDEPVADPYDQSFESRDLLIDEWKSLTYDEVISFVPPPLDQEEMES
# Excerpt: (§1) We derisk potential for off-target activity by profiling the compound in a CEREP panel, a standard secondary pharmacology assessment, as well as a kinase panel to derisk a potential hinge-binding motif in our leads, and a PARP panel to derisk activity against human […]. Reassuringly, the compounds are selective, with the only off-targets being moderate human CHRM2 and KOR receptors activity associated with ASAP-0011198.
# [4] = target: T2, MST1(h) (Homo sapiens, UniProt Q13043); assay: biochemical; parameters: In vitro kinase panel profiling, per cent remaining kinase activity at 10 uM; conditions: atp_concentration=90, read-out: % of control remaining
# T2 construct: gene STK4
# T2 sequence (Q13043 1-487): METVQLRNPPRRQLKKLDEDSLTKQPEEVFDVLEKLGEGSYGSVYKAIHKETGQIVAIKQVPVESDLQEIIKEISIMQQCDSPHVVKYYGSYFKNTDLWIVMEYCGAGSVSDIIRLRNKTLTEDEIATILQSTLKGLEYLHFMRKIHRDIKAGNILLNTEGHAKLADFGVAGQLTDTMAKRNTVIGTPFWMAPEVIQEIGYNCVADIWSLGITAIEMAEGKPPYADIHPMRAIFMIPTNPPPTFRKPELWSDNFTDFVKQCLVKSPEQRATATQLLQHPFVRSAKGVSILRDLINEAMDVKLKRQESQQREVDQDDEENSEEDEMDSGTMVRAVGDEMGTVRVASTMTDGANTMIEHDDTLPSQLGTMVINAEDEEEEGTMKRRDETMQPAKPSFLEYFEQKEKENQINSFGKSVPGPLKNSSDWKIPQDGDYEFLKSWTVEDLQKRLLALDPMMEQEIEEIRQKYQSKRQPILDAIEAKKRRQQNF
# Excerpt: as §1
# [5] = target: T3, CaMKI(h) (Homo sapiens, UniProt Q14012); assay: biochemical; parameters: In vitro kinase panel profiling, per cent remaining kinase activity at 10 uM; conditions: atp_concentration=200, read-out: % of control remaining
# T3 construct: gene CAMK1
# T3 sequence (Q14012 whole entry): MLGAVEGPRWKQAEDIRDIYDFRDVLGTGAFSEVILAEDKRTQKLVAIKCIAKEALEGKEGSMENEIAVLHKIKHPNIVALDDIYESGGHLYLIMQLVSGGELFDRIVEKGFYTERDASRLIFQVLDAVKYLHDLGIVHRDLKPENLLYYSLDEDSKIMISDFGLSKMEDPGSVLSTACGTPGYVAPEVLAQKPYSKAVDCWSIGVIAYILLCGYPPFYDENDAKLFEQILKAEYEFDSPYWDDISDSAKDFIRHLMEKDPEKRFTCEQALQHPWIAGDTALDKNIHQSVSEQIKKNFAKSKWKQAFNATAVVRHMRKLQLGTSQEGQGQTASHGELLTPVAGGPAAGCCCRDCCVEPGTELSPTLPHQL
# Excerpt: as §1
# [6] = target: T4, MLK1(h) (Homo sapiens, UniProt P80192); assay: biochemical; parameters: In vitro kinase panel profiling, per cent remaining kinase activity at 10 uM; conditions: atp_concentration=45, read-out: % of control remaining
# T4 construct: gene MAP3K9
# T4 sequence (P80192 whole entry): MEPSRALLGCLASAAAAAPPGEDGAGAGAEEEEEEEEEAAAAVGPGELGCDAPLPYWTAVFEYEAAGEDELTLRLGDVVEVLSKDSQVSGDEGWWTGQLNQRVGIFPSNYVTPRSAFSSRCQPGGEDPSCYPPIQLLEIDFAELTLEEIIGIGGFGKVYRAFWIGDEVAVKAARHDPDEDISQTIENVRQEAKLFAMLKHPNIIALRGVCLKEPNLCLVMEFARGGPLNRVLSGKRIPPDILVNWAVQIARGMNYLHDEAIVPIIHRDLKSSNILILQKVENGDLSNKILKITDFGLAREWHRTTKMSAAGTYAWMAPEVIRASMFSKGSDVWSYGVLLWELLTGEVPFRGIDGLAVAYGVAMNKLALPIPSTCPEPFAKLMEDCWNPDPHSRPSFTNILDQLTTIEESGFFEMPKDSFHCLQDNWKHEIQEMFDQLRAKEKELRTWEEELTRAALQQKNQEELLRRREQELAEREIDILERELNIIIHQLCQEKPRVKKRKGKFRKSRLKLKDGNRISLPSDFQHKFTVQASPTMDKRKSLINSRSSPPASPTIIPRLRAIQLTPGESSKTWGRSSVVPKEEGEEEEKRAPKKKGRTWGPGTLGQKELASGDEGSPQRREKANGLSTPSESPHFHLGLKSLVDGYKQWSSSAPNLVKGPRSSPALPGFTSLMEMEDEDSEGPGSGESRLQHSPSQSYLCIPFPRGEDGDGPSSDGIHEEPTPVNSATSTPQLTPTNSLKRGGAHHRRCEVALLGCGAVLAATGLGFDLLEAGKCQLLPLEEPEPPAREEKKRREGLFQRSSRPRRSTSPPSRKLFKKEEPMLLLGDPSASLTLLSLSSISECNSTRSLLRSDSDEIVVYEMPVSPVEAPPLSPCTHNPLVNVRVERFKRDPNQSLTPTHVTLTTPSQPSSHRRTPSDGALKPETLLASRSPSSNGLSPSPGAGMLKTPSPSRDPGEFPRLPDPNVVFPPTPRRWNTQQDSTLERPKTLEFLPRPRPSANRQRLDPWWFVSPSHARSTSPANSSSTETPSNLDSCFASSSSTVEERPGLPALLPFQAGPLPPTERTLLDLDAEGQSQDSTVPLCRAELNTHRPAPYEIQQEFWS
# Excerpt: as §1
# [7] = target: T5, AMPKα1(h) (Homo sapiens, UniProt Q13131); assay: biochemical; parameters: In vitro kinase panel profiling, per cent remaining kinase activity at 10 uM; conditions: atp_concentration=45, read-out: % of control remaining
# T5 construct: gene PRKAA1
# T5 sequence (Q13131 whole entry): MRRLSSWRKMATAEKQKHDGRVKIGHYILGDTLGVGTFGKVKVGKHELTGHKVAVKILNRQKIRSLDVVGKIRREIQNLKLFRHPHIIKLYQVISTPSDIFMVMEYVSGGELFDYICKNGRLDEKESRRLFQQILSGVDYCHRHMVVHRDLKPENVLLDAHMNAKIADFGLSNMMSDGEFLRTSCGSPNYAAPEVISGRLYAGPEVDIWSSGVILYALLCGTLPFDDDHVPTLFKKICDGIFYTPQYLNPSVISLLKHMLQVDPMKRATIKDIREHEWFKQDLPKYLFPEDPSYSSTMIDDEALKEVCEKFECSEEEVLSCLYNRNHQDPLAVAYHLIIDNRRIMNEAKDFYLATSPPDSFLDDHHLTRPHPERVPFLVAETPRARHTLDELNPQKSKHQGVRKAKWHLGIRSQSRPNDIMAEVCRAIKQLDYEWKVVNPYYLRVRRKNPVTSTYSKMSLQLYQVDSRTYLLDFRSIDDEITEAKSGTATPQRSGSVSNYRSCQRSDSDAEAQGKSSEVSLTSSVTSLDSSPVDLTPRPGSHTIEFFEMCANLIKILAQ
# T5 sequence (P54619 whole entry partner): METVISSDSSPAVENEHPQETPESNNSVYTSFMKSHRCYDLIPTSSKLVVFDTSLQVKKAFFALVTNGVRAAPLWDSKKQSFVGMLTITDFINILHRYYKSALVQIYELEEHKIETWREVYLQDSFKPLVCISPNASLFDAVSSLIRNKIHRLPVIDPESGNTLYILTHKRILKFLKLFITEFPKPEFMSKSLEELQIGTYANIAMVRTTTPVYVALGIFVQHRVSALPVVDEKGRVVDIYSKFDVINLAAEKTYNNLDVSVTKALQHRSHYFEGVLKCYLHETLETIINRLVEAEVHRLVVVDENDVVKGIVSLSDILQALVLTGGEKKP
# T5 sequence (Q9Y478 whole entry partner): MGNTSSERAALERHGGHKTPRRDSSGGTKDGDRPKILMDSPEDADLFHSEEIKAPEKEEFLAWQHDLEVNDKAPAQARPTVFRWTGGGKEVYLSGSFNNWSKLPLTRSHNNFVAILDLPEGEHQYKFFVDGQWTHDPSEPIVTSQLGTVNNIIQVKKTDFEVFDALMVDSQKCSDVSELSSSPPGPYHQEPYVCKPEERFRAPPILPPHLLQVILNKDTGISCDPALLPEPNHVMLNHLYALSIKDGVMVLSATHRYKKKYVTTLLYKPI
# Excerpt: as §1
# [8] = target: T6, NEK2(h) (Homo sapiens, UniProt P51955); assay: biochemical; parameters: In vitro kinase panel profiling, per cent remaining kinase activity at 10 uM; conditions: atp_concentration=120, read-out: % of control remaining
# T6 sequence (P51955 1-445): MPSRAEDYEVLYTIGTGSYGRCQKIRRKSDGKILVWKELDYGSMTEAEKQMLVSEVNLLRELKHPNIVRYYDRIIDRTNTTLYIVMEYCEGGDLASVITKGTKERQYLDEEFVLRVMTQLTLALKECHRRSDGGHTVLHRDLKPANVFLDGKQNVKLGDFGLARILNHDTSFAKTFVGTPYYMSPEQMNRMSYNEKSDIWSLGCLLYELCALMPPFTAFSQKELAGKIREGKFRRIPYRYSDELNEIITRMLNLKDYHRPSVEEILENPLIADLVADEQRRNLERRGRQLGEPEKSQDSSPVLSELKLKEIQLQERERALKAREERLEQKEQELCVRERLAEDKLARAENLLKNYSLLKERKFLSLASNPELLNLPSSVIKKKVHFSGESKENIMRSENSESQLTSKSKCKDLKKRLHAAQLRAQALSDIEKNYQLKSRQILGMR
# Excerpt: as §1
# [9] = target: T7, CK1γ1(h) (Homo sapiens, UniProt Q9HCP0); assay: biochemical; parameters: In vitro kinase panel profiling, per cent remaining kinase activity at 10 uM; conditions: atp_concentration=15, read-out: % of control remaining
# T7 construct: gene CSNK1G1
# Excerpt: as §1
# [10] = target: T8, Abl(h) (Homo sapiens, UniProt P00519); assay: biochemical; parameters: In vitro kinase panel profiling, per cent remaining kinase activity at 10 uM; conditions: atp_concentration=45, read-out: % of control remaining
# T8 construct: gene ABL1
# Excerpt: as §1
# [11] = target: T9, PKBα(h) (Homo sapiens, UniProt P31749); assay: biochemical; parameters: In vitro kinase panel profiling, per cent remaining kinase activity at 10 uM; conditions: atp_concentration=155, read-out: % of control remaining
# T9 construct: gene AKT1
# T9 sequence (P31749 whole entry): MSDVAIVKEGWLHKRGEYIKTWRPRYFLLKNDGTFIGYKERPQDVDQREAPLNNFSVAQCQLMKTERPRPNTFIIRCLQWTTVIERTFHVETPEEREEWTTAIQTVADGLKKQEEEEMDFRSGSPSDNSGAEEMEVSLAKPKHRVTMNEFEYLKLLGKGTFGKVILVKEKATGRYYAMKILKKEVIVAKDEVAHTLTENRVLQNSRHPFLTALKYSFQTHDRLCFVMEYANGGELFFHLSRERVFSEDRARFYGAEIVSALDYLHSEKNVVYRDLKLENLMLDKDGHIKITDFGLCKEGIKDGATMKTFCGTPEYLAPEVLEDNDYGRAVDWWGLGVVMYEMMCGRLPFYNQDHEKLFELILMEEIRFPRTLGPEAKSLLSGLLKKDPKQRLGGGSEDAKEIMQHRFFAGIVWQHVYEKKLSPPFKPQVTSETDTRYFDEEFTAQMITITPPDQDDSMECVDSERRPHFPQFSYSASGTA
# Excerpt: as §1
# [12] = target: T10, CK2α2(h) (Homo sapiens, UniProt P19784); assay: biochemical; parameters: In vitro kinase panel profiling, per cent remaining kinase activity at 10 uM; conditions: atp_concentration=10, read-out: % of control remaining
# T10 construct: gene CSNK2A2
# Excerpt: as §1
# [13] = target: T11, PI3 Kinase (p110β/p85α)(h) (Homo sapiens, UniProt P42338); assay: biochemical; parameters: In vitro kinase panel profiling, per cent remaining kinase activity at 10 uM; conditions: atp_concentration=200, read-out: % of control remaining
# T11 construct: gene PIK3CB
# Excerpt: as §1
# [14] = target: T12, Mnk2(h) (Homo sapiens, UniProt Q9HBH9); assay: biochemical; parameters: In vitro kinase panel profiling, per cent remaining kinase activity at 10 uM; conditions: atp_concentration=120, read-out: % of control remaining
# T12 construct: gene MKNK2
# T12 sequence (Q9HBH9 whole entry): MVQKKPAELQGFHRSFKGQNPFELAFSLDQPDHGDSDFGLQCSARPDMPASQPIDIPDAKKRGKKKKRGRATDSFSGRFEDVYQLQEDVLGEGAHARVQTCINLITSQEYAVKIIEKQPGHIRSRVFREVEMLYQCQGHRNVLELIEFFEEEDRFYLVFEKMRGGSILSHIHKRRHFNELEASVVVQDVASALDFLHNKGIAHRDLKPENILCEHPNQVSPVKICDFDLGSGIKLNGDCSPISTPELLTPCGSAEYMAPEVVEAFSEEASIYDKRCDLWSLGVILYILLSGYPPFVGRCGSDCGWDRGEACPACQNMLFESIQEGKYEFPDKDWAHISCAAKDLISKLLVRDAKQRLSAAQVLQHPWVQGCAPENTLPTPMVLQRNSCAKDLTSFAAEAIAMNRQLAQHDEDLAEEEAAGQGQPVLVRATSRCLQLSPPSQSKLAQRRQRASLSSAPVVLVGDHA
# Excerpt: as §1
# [15] = target: T13, MSK2(h) (Homo sapiens, UniProt O75676); assay: biochemical; parameters: In vitro kinase panel profiling, per cent remaining kinase activity at 10 uM; conditions: atp_concentration=45, read-out: % of control remaining
# T13 construct: gene RPS6KA4
# T13 sequence (O75676 whole entry): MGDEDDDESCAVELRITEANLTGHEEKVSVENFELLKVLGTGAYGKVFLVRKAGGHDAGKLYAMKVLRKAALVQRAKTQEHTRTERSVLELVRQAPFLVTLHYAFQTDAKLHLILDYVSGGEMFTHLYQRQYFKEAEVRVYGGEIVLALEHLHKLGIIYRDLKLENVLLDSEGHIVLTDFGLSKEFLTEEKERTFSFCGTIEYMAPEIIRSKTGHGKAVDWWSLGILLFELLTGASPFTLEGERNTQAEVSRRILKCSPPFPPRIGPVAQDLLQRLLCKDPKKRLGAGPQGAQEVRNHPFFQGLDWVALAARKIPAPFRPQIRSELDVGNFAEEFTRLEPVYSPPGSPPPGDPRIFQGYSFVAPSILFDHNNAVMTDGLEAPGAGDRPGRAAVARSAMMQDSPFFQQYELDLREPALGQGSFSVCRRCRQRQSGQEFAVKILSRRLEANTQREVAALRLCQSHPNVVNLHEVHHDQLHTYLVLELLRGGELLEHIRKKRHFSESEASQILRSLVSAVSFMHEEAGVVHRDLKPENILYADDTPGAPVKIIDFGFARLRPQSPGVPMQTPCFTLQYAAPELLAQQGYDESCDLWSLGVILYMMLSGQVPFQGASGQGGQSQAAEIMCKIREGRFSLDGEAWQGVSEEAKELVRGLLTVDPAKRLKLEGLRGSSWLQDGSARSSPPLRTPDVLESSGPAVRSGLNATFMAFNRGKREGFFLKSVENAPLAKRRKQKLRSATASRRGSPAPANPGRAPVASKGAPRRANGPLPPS
# Excerpt: as §1
# [16] = Permeability Papp (AB) MDR1/MDCKII; conditions: for papp_a_to_b_mean / papp_b_to_a_mean / perc_recovery_a_to_b_mean / perc_recovery_b_to_a_mean: In vitro MDR1-MDCKII permeability; for papp_b_to_a_mean: B to A; for perc_recovery_a_to_b_mean / perc_recovery_a_to_b_inhibitor_mean: recovery A to B; for perc_recovery_b_to_a_mean / perc_recovery_b_to_a_inhibitor_mean: recovery B to A; for perc_recovery_a_to_b_inhibitor_mean / perc_recovery_b_to_a_inhibitor_mean: MDR1-MDCKII
smiles,measurement,setting,value
CNCc1cc(-c2cc3c(N[C@@H](c4ccc5c(c4)S(=O)(=O)CCC5)C(C)C)ncnc3[nH]2)co1 [ASAP-0011176],solubility_mean,[1],345 µM
same,logd,"[2]; pH 7.4, In vitro LogD",2.2
same,remaining activity at 10 µM,[3]; batch_name=ASAP-0011176-002,97%
same,remaining activity at 10 µM,[4]; batch_name=ASAP-0011176-002,108%
same,remaining activity at 10 µM,[5]; batch_name=ASAP-0011176-002,87%
same,remaining activity at 10 µM,[6]; batch_name=ASAP-0011176-002,86%
same,remaining activity at 10 µM,[7]; batch_name=ASAP-0011176-002,86%
same,remaining activity at 10 µM,[8]; batch_name=ASAP-0011176-002,105%
same,remaining activity at 10 µM,[9]; batch_name=ASAP-0011176-002,99%
same,remaining activity at 10 µM,[10]; batch_name=ASAP-0011176-002,51%
same,remaining activity at 10 µM,[11]; batch_name=ASAP-0011176-002,96%
same,remaining activity at 10 µM,[12]; batch_name=ASAP-0011176-002,90%
same,remaining activity at 10 µM,[13]; batch_name=ASAP-0011176-002,92%
same,remaining activity at 10 µM,[14]; batch_name=ASAP-0011176-002,94%
same,remaining activity at 10 µM,[15]; batch_name=ASAP-0011176-002,91%
same,papp_a_to_b_mean,"[16]; A to B, mean",2.61 ×10⁻⁶ cm/s
same,papp_a_to_b_mean,"[16]; A to B, no inhibitor",0.0775 ×10⁻⁶ cm/s and 0.0947 ×10⁻⁶ cm/s
same,papp_b_to_a_mean,[16]; no inhibitor,0.15 ×10⁻⁶ cm/s and 0.137 ×10⁻⁶ cm/s
same,perc_recovery_a_to_b_mean,[16]; mean,78.9%
same,perc_recovery_a_to_b_mean,[16]; no inhibitor,64.8% and 63.4%
same,perc_recovery_b_to_a_mean,[16]; no inhibitor,60.4% and 68.7%
same,perc_recovery_a_to_b_inhibitor_mean,[16]; with inhibitor Cyclosporin A,78.6%
same,perc_recovery_a_to_b_inhibitor_mean,[16]; with inhibitor Verapamil,67.3%
same,perc_recovery_b_to_a_inhibitor_mean,[16]; with inhibitor Cyclosporin A,83.0%
same,perc_recovery_b_to_a_inhibitor_mean,[16]; with inhibitor Verapamil,62.0%
CC(C)C(Nc1ncnc2[nH]c(C(=O)NC3CCN(C)C3)cc12)c1ccc2c(c1)S(=O)(=O)CCC2 (stereo not shown) [ASAP-0011198],solubility kinetic,[1],392 µM
same,solubility,[1]; pH 7.4,392 µM
same,logd,[2],1.6
same,logd,[2]; pH 7.4,1.6
same,remaining activity at 10 µM,[3]; batch_name=ASAP-0011198-002,97%
same,remaining activity at 10 µM,[4]; batch_name=ASAP-0011198-002,122%
same,remaining activity at 10 µM,[5]; batch_name=ASAP-0011198-002,100%
same,remaining activity at 10 µM,[6]; batch_name=ASAP-0011198-002,96%
same,remaining activity at 10 µM,[7]; batch_name=ASAP-0011198-002,107%
same,remaining activity at 10 µM,[8]; batch_name=ASAP-0011198-002,118%
same,remaining activity at 10 µM,[9]; batch_name=ASAP-0011198-002,100%
same,remaining activity at 10 µM,[10]; batch_name=ASAP-0011198-002,100%
same,remaining activity at 10 µM,[11]; batch_name=ASAP-0011198-002,88%
same,remaining activity at 10 µM,[12]; batch_name=ASAP-0011198-002,98%
same,remaining activity at 10 µM,[13]; batch_name=ASAP-0011198-002,99%
same,remaining activity at 10 µM,[14]; batch_name=ASAP-0011198-002,99%
same,remaining activity at 10 µM,[15]; batch_name=ASAP-0011198-002,93%
same,papp_a_to_b_mean,"[16]; A to B, no inhibitor",0.0631 ×10⁻⁶ cm/s
same,papp_b_to_a_mean,[16]; no inhibitor,0.0474 ×10⁻⁶ cm/s
same,perc_recovery_a_to_b_mean,[16]; mean,94.6%
same,perc_recovery_a_to_b_mean,[16]; no inhibitor,86.2% and 71.8%
same,perc_recovery_b_to_a_mean,[16]; no inhibitor,93.1% and 82.5%
same,perc_recovery_a_to_b_inhibitor_mean,[16]; with inhibitor Cyclosporin A,100.0% and 74.6%
same,perc_recovery_b_to_a_inhibitor_mean,[16]; with inhibitor Cyclosporin A,100.0% and 87.0%
same,Papp A→B,"[16]; dog, MDCK-MDR1, Papp (AB) MDR1/MDCKII, A to B",2.9 ×10⁻⁶ cm/s
Cn1ncc(-c2cc3c(N[C@@H](c4ccc5c(n4)OCCO5)C(C)(C)C)ncnc3[nH]2)c1C#N [ASAP-0011221],solubility_mean,[1],24 µM
same,logd,"[2]; pH 7.4, In vitro LogD",3.3
same,remaining activity at 10 µM,[3]; batch_name=ASAP-0011221-002,106%
same,remaining activity at 10 µM,[4]; batch_name=ASAP-0011221-002,115%
same,remaining activity at 10 µM,[5]; batch_name=ASAP-0011221-002,87%
same,remaining activity at 10 µM,[6]; batch_name=ASAP-0011221-002,94%
same,remaining activity at 10 µM,[7]; batch_name=ASAP-0011221-002,109%
same,remaining activity at 10 µM,[8]; batch_name=ASAP-0011221-002,104%
same,remaining activity at 10 µM,[9]; batch_name=ASAP-0011221-002,94%
same,remaining activity at 10 µM,[10]; batch_name=ASAP-0011221-002,81%
same,remaining activity at 10 µM,[11]; batch_name=ASAP-0011221-002,103%
same,remaining activity at 10 µM,[12]; batch_name=ASAP-0011221-002,92%
same,remaining activity at 10 µM,[13]; batch_name=ASAP-0011221-002,91%
same,remaining activity at 10 µM,[14]; batch_name=ASAP-0011221-002,100%
same,remaining activity at 10 µM,[15]; batch_name=ASAP-0011221-002,122%
same,papp_a_to_b_mean,"[16]; A to B, mean",14.0 ×10⁻⁶ cm/s
same,papp_a_to_b_mean,"[16]; A to B, no inhibitor",2.76 ×10⁻⁶ cm/s
same,papp_b_to_a_mean,[16]; no inhibitor,5.51 ×10⁻⁶ cm/s
same,perc_recovery_a_to_b_mean,[16]; mean,84.8%
same,perc_recovery_a_to_b_mean,[16]; no inhibitor,94.8%
same,perc_recovery_b_to_a_mean,[16]; no inhibitor,101.0%
same,perc_recovery_a_to_b_inhibitor_mean,[16]; with inhibitor Cyclosporin A,61.6%
same,perc_recovery_b_to_a_inhibitor_mean,[16]; with inhibitor Cyclosporin A,62.4%
